Reference: patent US10988478B1, “Pyrazolo[1,5a]pyrimidine derivatives as IRAK4 modulators” (Genentech, Inc., priority 2015, dated 2021)

target: human IRAK4 (Homo sapiens (Human), UniProt Q9NWZ3); assay: IRAK4 kinase inhibition, Transcreener fluorescence polarization ADP assay; assay type: biochemical; details: recombinant full-length His6-IRAK4; 125 uM ATP; 90 min; Ki computed using ATP Km 642 uM
Protocol: Compounds were assayed for inhibition of human IRAK4 and IRAK1 catalytic activity using recombinant enzyme produced from insect cells. Full-length IRAK4 protein, carrying an N-terminal His6-Tag, was obtained from Life Technologies (Carlsbad, Calif., USA). The IRAK1 construct was produced internally and was comprised of IRAK1 residues Arg194 to Ser712, preceded by an NH2-terminal His6 tag and the coding sequence for glutathione-S-transferase.

Sequence of human IRAK4 (Q9NWZ3 whole entry, the tested form may be a part): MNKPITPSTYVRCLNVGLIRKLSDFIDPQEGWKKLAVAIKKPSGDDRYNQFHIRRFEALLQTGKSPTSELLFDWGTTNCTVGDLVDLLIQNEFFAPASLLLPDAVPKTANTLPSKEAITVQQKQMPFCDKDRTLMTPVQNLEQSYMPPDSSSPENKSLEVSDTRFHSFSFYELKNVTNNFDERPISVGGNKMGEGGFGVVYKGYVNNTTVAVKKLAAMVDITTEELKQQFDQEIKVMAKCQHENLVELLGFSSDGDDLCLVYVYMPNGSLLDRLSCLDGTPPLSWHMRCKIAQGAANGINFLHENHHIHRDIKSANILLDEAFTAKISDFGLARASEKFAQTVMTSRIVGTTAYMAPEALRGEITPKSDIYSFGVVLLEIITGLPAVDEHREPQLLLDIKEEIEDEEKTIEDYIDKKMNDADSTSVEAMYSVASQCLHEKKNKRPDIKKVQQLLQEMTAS

Compound | Ki [nM]
CC(C)(O)[C@@]1(C)Cc2cc(NC(=O)c3cnn4cccnc34)c(O[C@H]3CC[C@@H](O)CC3)cc2O1 [Example 313, N-[(2R)-6-(cis-4-Hydroxycyclo-hexoxy)-2-(1-hydroxy-1-methyl-ethyl)-2-methyl-3H-benzofuran-5-yl]pyrazolo[1,5-a]pyrimidine-3-carboxamide] | 490
CC(C)(O)[C@]1(C)Cc2cc(NC(=O)c3cnn4cccnc34)c(O[C@H]3CC[C@H](O)CC3)cc2O1 [Example 314, N-[(2S)-6-(trans-4-Hydroxycyclo-hexoxy)-2-(1-hydroxy-1-methyl-ethyl)-2-methyl-3H-benzofuran-5-yl]pyrazolo[1,5-a]pyrimidine-3-carboxamide] | 65
CC(C)(O)[C@@]1(C)Cc2cc(NC(=O)c3cnn4cccnc34)c(O[C@H]3CC[C@H](O)CC3)cc2O1 [Example 315, N-[(2R)-6-(trans-4-Hydroxycyclo-hexoxy)-2-(1-hydroxy-1-methyl-ethyl)-2-methyl-3H-benzofuran-5-yl]pyrazolo[1,5-a]pyrimidine-3-carboxamide] | 520
O=C(Nc1cc2c(cc1N1CCC(CO)CC1)O[C@](CO)(C(F)(F)F)C2)c1cnn2cccnc12 [Example 316, (R)-N-(2-(hydroxymethyl)-6-(4-(hydroxymethyl)piperidin-1-yl)-2-(trifluoromethyl)-2,3-dihydrobenzofuran-5-yl)pyrazolo[1,5-a]pyrimidine-3-carboxamide] | 5.2
O=C(Nc1cc2c(cc1N1CCC(CO)CC1)O[C@@](CO)(C(F)(F)F)C2)c1cnn2cccnc12 [Example 317, (S)-N-(2-(hydroxymethyl)-6-(4-(hydroxymethyl)piperidin-1-yl)-2-(trifluoromethyl)-2,3-dihydrobenzofuran-5-yl)pyrazolo[1,5-a]pyrimidine-3-carboxamide] | 2.4
O=C(Nc1cc2c(cc1N1CCC(F)(CO)CC1)O[C@@](CO)(C(F)(F)F)C2)c1cnn2cccnc12 [Example 319, (S)-N-(6-(4-fluoro-4-(hydroxymethyl)piperidin-1-yl)-2-(hydroxymethyl)-2-(trifluoromethyl)-2,3-dihydrobenzofuran-5-yl)pyrazolo[1,5-a]pyrimidine-3-carboxamide] | 3.1
C[C@]1(CO)Cc2cc(NC(=O)c3cnn4cccnc34)c(N3CCC4(CC3)CNC4=O)cc2O1 [Example 320, (R)-N-(2-(hydroxymethyl)-2-methyl-6-(1-oxo-2,7-diazaspiro[3.5]nonan-7-yl)-2,3-dihydrobenzofuran-5-yl)pyrazolo[1,5-a]pyrimidine-3-carboxamide] | 4.6
C[C@@]1(CO)Cc2cc(NC(=O)c3cnn4cccnc34)c(N3CCC4(CC3)CNC4=O)cc2O1 [Example 321, (S)-N-(2-(hydroxymethyl)-2-methyl-6-(1-oxo-2,7-diazaspiro[3.5]nonan-7-yl)-2,3-dihydrobenzofuran-5-yl)pyrazolo[1,5-a]pyrimidine-3-carboxamide] | 11
CC1(CO)Cc2cc(NC(=O)c3cnn4cccnc34)c(N3CC4C(CO)C4C3)cc2O1 (centres unmarked) [Example 322, N-(2-(hydroxymethyl)-6-(6-(hydroxymethyl)-3-azabicyclo[3.1.0]hexan-3-yl)-2-methyl-2,3-dihydrobenzofuran-5-yl)pyrazolo[1,5-a]pyrimidine-3-carboxamide] | 35
CC(C)(O)C1CCN(c2cc3c(cc2NC(=O)c2cnn4cccnc24)C[C@@](C)(CO)O3)CC1 [Example 323, N-[(2S)-2-(Hydroxymethyl)-6-[4-(1-hydroxy-1-methyl-ethyl)-1-piperidyl]-2-methyl-3H-benzofuran-5-yl]pyrazolo[1,5-α]pyrimidine-3-carboxamide] | 4.2
CC(C)(O)C1CCN(c2cc3c(cc2NC(=O)c2cnn4cccnc24)C[C@](C)(CO)O3)CC1 [Example 324, N-[(2R)-2-(Hydroxymethyl)-6-[4-(1-hydroxy-1-methyl-ethyl)-1-piperidyl]-2-methyl-3H-benzofuran-5-yl]pyrazolo[1,5-α]pyrimidine-3-carboxamide] | 4.8
